# Test results reported in patent US6117859A, “Method of relieving chronic inflammation by using 5-alkylsulfonylsalicylanilides” (The Research Foundation of State University of New York, priority 1999, dated 2000).
# Entries after “also recorded” stand apart in the source; their conditions may differ.
# Columns and labels:
# [1] = tested on: TPA treated mouse ear skin; assay: Histopathology of ear biopsies after multiple doses of TPA (epidermal thickness, dermal cellularity); format: in vivo, mouse (female CD-1)
# Experimental: The assay used female CD-1 mice (7-9 weeks of age). Following a 2-week quarantine, mice were randomly assigned to test groups (5 mice/groups). TPA (10 uL of 0.01 TPA in acetone) was administered to both the inner and outer surface of each ear (2μg/ear) on day 0,2,4,7, and 9 on protocol. On Day 7,8 and 9, two applications of test article were applied to each ear 2 and 4 hours after dosing with TPA. The test articles were administered in 10 uL aliquots to both the inner and outer surface of each ear (20 μl total/dose). The candidate drugs were tested at several different concentrations (e.g., 5, 1.25, and 0.125 mg/ear) to determine a maximum effective dose within a range that could be effectively applied. Hydrocortisone-17-valerate (HCV, 20μg/ear) was employed as a positive control. Mice were sacrificed at Day 10 on protocol and uniform punch biopsies (approximately 8 mm dia.) were taken from each ear. While on protocol, dermal irritation was scored semiquantitatively at Day 1,3,5,8, and 10.
# Inhibition of TPA stimulated increased ear weight was used as an initial measure of efficacy for all of the agents tested. One biopsy from each mouse was also quick frozen and stored at -70° C. for later assay of myleoperoxidase, an enzyme associated with infiltrating PMN, or other measure of efficacy. The remaining biopsy from each mouse treated with Trifluorosal or HCV was fixed in formalin and processed for histopathologic evaluation, including measurement of cellular infiltration (PMNs, endothelial cells, macrophages) and epidermal thickness at 20 random sites along the length of the specimen.
# In order to confirm the subjective observations, quantitative determinations of 3 parameters (epidermal thickness, dermal thickness, and dermal cellularity) in the skin of negative controls (acetone), positive controls (TPA), and TPA treated skin treated with 3 doses of test article (Trifluorosal) and hydrocortisone were carried out. Epidermal thickness reflects the reactive proliferative activity induced by TPA in the […]: dermal thickness reflects primarily Ad edema but may also be affected by other phenomena, such as formation of granulation tissue, collagen synthesis, the activity of myofibroblasts, etc. Cellularity of the dermis is frequently used as a surrogate marker of inflammatory changes in the dermis.
# Determination of the epidermal thickness was performed under the microscope with a calibrated scale placed in the eyepiece. Ten determinations were carried out in the epidermis covering the outside of the ear using a 40× objective and a 10× eyepiece (400× total). The measurements were taken from the basal side of the basal layer (basement membrane) to the outer side of the last nucleated cell of the […]. The average of the 10 measurements expressed in microns was entered in the table.
# Determination of dermal thickness was performed using a similar technique. To avoid variability caused by the difference in sizes between the base and tip of the ear, only 3 measurements were performed in the center of the sample. The measurements were performed from the basement membrane of the external and internal epithelial and therefore include, in addition to both dermis (external and internal), the cartilage.
# Cellularity of the dermis was calculated by projecting a calibrated grid into the dermis and counting cells in the known area of the dermis. Areas of hair follicles or sebaceous glands were avoided. Five fields were counted and the results were adjusted to the number of cells in 1,000 square microns.
# The results of individual animals were entered in the table and the averages and standard deviation were calculated using an EXCEL database. In addition, the results were also expressed as a percentage of the control (acetone treated). Furthermore, the percentage of inhibition of the test articles were calculated using the following formula: [formula]
# [2] = tested on: TPA induced mouse ear edema; assay: Acute TPA mouse ear inflammation assay, edema (ear weight); format: in vivo
# Description: The anti-inflammatory effect of selected compounds of this invention were compared to those of Triclosan™ and hydrocortisone in a modified […] (TPA) mouse ear inflammation assay. TPA was used as an inflammogen rather than croton oil because TPA gives a well characterized inflammatory response at very low concentrations. […] This model can therefore be used to study the pharmacokinetics, clinical efficacy and adverse side effects of anti-inflammatory agents. To quantitate inflammation, ear punches from treated animals were used to measure increased ear mass (edema) and myeloperoxidase (MPO) activity. For the inhibition studies, ear biopsies were weighed six hours after treatment with TPA and the simultaneous application of the compound of the present invention. All the compounds were diluted in acetone. Following this, the biopsies were frozen and subsequently used to measure inhibition of MPO activity, an estimate of polymorphonuclear (PMN) […] activity in the affected area. Percent inhibition of edema was calculated as [c-t]/c x 100, where c and t are increases in ear weight in control and treated mice, respectively.
# Initially a dose-response curve for TPA-induced mouse ear edema was generated in order to determine the concentration of TPA to be employed in the inhibition studies. TPA produced a theoretical dose-response curve for edema with an ED50 of 80 ng/ear and an ED90 of 200 ng/ear in two separate experiments. ED50 is the dose at which 50% of the maximum effect was observed while ED90 is the dose at which 90% of the maximum effect was observed. […] The ED50 values for the compounds tested are as follows: […]
compound,measurement,setting,value
CCCCCCCCCCCCS(=O)(=O)c1ccc(O)c(C(=O)Nc2cccc(C(F)(F)F)c2)c1 [TMF-12],"% Inhibition, Dermal Cellularity",[1]; 1.25 mg/ear,24.6%
same,"% Inhibition, Epidermal Thickness",[1]; 1.25 mg/ear,48.0%
same,"% Inhibition, Dermal Cellularity",[1]; 2.50 mg/ear,64.3%
same,"% Inhibition, Epidermal Thickness",[1]; 2.50 mg/ear,11.4%
same,"% Inhibition, Dermal Cellularity",[1]; 5.00 mg/ear,47.6%
same,"% Inhibition, Epidermal Thickness",[1]; 5.00 mg/ear,30.0%
same,Blood vessel prominence (in words),[1]; histopathology,Blood vessels were not as prominent
same,Cellularity of the dermis (in words),"[1]; histopathology, FIG. 1",reduced the epidermal thickness as well as the cellularity of the dermis
same,Epidermal thickness (in words),"[1]; histopathology, FIG. 1",reduced the epidermal thickness
same,ID50 edema,[2]; acute assay,18 μg/ear
same,Inhibition of TPA induced mouse ear edema (in words),[2]; acute assay,inhibited TPA induced mouse ear edema in a dose-dependent fashion
same,Relative anti-inflammatory potency (in words),[2]; acute assay,most potent of all; also recorded: more potent than AMCF3-8
same,Relative anti-inflammatory potency (in words),"[2]; acute assay, listed as Trifluorosal",the most potent 5-(n-alkylsulfonyl)salicylanilide in this assay
same,Potency relative to Salifluor,[2]; acute edema assay,ten
